# In US8367121B2, “Nutraceutical agent for attenuating the neurodegenerative process associated with Parkinson's disease” (Florida A & M University, priority 2005, dated 2013):
# Read-outs that look alike come from different tables or passages of the source.
# Tests used:
# MPP+ toxicity = MPP+ toxicity in vitro (loss of ATP / cell death); assay type: cell-based; conditions: for protection against MPP+ toxicity: in vitro
# [1] = Reduce/chelate and complex iron; conditions: as demonstrated in our lab
# [2] = Non-enzymatic DA oxidation to melanized pigments in buffered non-acid solution exposed to atmosphere; conditions: neutral pH; data not published
# Source text: 2. DA AUTOXIDATION—The second major route for DA oxidation is non-enzymatic autoxidation in the presence of H2O2, ROS and metals (Fe^+2, Cu^+2, and Mn^+2) (Montgomery et al., Toxicology. 1995 Mar. 31; 97(1-3):3-9; Sayre et al., 1999 Bio-inorganic Chemistry 3:220-225). Autoxidation of DA can render formation of 6-OHDA (a potent neurotoxin) and O2.^−, of which the later if in proximity to nitric oxide (NO) can react to form ONOO—. Peroxynitrite can then re-oxidize DA, deplete available reduced glutathione/ascorbate, incur a substantial loss of endogenous GSH-peroxidase function and destroy the natural ability of GSH to act as an antioxidant, inactivate toxic DA o-semiquinones or ONOO—(Blum et al., 2001; Antunes et al., Toxicology. 2005 Mar. 15; 208(2):207-12). Likewise, the neurological damage associated with PD corresponds to depletion of SNc GSH as consistently evidenced in various studies (Ebadi et al, Prog Neurobiol. 1996 January; 48(1):1-19) and a reduction of GSH (ie. γ-glutamylcysteine. synthetase inhibitor) renders SNc neurons extremely vulnerable to the toxic effects of MPTP and 6-OHDA (Bharath et al., Biochem Pharmacol. 2002 September; 64(5-6):1037-48). In contrast, administration of thiol antioxidants such as dithioreitol, GSH and NAC (which block the autoxidation of DA), prevent MPTP induced toxicity in mice (Annepu and Ravindranath, Neurosci Lett. 2000 Aug. 11; 289(3):209-12; Bahat-Stroomza et al., Eur J Neurosci. 2005 February; 21(3):637-46). For these reasons, the formulation will include substances that prevent non-enzymatic DA oxidation herein classified under “DA-AUTOXIDATION (−)”. The compounds chosen were based on their propensity to block DA oxidation to melanized pigments in buffered non-acid solution exposed to atmosphere and corresponding production of ROS upon exposure of O2 (data not published). Of approximately 100 food based compounds tested in our lab, the findings indicate a block of DA oxidation at neutral pH by PY, β-CAROTENE (*), NAC (*), GSH (*), VITAMIN C (*). […] The addition of ascorbic acid as a DA-AUTOXIDATION (−) should be limited given its negative counter-indication with iron and 6-OHDA (Mendez-Alvarez et al., Free Radic Biol Med. 2001 Oct. 15; 31(8):986-98). In contrast, ample concentration of thiol substances should be added to the formulation as they are non-toxic, attenuate pathological effects of 6-OHDA, ONOO— and block the formation of DA o-semiquinone neurotoxic radicals (Asanuma et al., Acta Med. Okayama 2004: 58 (5) 221-233).
# 6-OHDA toxicity [3] = experiment: 6-OHDA toxicity in vitro; assay type: cell-based
# H2O2 toxicity = H2O2 toxicity in vitro; assay type: cell-based
# Source text: (§1) With that, overcoming the initial deficit imposed by PD toxins such as MPP+ are possible with non-glucose intermediates that are capable of sustaining ATP production through substrate level phosphorylation. These compounds should protect against cell death by MPP+, herein also classified under “ANAEROBIC (+)”. […] Agents capable of mediating positive effects on PK/LDH should in theory offset the metabolic vulnerability imposed by the rise in lactate/pyruvate, nicotinamide adenine dinucleotide (NAD)/nicotinamide adenine dinucleotide reduced (NADH) and NADP/NADPH ratios that occur during hypoglycemia and neurological damage (Auer RN. Metab Brain Dis. 2004 December; 19(3-4):169-75). For this reason, the first component and the base of this nutraceutical formulation are one or more of PYRUVIC ACID (*) (PY), […] ACID (SA)* and OXALOACETATE (*) (OA) as well as their corresponding molecular derivatives, analogues, esters or salts. […] On the other hand, PY can readily enter the brain, serve as a useful substrate for glycolysis, the Krebs cycle and the GABA shunt (Gonzalez et al., J Neurochem. 2005 October; 95(1):284-93) with capability to protect ergogenic failure associated with ischemic stroke and heart disease (Lee et al., J Neurosci. 2001 Oct. 15; 21(20):RC171; Hermann et al., Eur J Heart Fail. 2004 Mar. 1; 6(2):213-8).
# LDH = experiment: Substrate for lactic acid dehydrogenase; assay type: biochemical
# Source text: as §1
# complex II = experiment: Mitochondrial complex II function; assay type: biochemical
# [4] = system: mitochondrial respiration; experiment: Mitochondrial O2 consumption / respiration; assay type: biochemical
# complex IV = experiment: Mitochondrial complex IV function; assay type: biochemical
# complex I = experiment: Mitochondrial complex I function
# 6-OHDA toxicity [5] = conditions: Kabuto et al., Neurochem Res. 2005; cited from earlier work
# [6] = Non-enzymatic H2O2 scavenging
compound,measurement,setting,value
CC(=O)O[C@H](CC(=O)[O-])C[N+](C)(C)C [ACETYL-L-CARNITINE],protection against MPP+ toxicity,MPP+ toxicity,effective
"O=C(O[C@@H]1Cc2c(O)cc(O)cc2O[C@@H]1c1cc(O)c(O)c(O)c1)c1cc(O)c(O)c(O)c1 [EGCG, (−)-Epigallocatechin-3-gallate]",protection against MPP+ toxicity,MPP+ toxicity,effective
COc1cc(/C=C/C(=O)O)ccc1O [FERULIC ACID],reduce/chelate and complex iron,[1],most powerful
"O=C(COP(=O)(O)O)[C@@H](O)[C@H](O)[C@H](O)COP(=O)(O)O [FRUCTOSE 1,6 BISPHOSPHATE]",protection against MPP+ toxicity,MPP+ toxicity,effective
O=C(CO)[C@@H](O)[C@H](O)[C@H](O)CO [FRUCTOSE],protection against MPP+ toxicity,MPP+ toxicity,effective
"N[C@@H](CCC(=O)N[C@@H](CS)C(=O)NCC(=O)O)C(=O)O [GSH, reduced glutathione]",block of DA oxidation,[2],block
same,protection against / antagonism of 6-OHDA toxicity,6-OHDA toxicity [3],directly antagonize
O=c1c(O)c(-c2ccc(O)cc2O)oc2cc(O)cc(O)c12 [MORIN],reduce/chelate and complex iron,[1],most powerful
"CC(=O)N[C@@H](CS)C(=O)O [NAC, N-acetyl-L-cysteine]",block of DA oxidation,[2],block
same,protection against / antagonism of 6-OHDA toxicity,6-OHDA toxicity [3],directly antagonize
"NC(=O)C1=CN([C@@H]2O[C@H](COP(=O)(O)OP(=O)(O)OC[C@H]3O[C@@H](n4cnc5c(N)ncnc54)[C@H](O)[C@@H]3O)[C@@H](O)[C@H]2O)C=CC1 [NADH, reduced nicotinamide adenine dinucleotide]",protection against MPP+ toxicity,MPP+ toxicity,protect
C=C(OP(=O)(O)O)C(=O)O [PHOSPHOENOLPYRUVATE],protection against MPP+ toxicity,MPP+ toxicity,effective
"CN1C(C(=O)Nc2ccccn2)=C(O)c2ccccc2S1(=O)=O [PIROXICAM, reference compound]",protection against MPP+ toxicity,MPP+ toxicity,effective
"CC(=O)C(=O)O [PY, PYRUVIC ACID]",block of DA oxidation,[2],block
same,protection against / antagonism of 6-OHDA toxicity,6-OHDA toxicity [3],protect
same,protection against / antagonism of 6-OHDA toxicity,6-OHDA toxicity [3]; listed as pyruvate,directly antagonize
same,protection against MPP+ toxicity,MPP+ toxicity,protect
same,protection against H2O2 toxicity,H2O2 toxicity,protect
same,substrates for LDH,LDH,exceptional substrates for LDH
Oc1ccc(C=Cc2cc(O)cc(O)c2)cc1 [RESVERATROL],protection against MPP+ toxicity,MPP+ toxicity,effective
"O=C(O)CCC(=O)O [SA, SUCCINIC ACID]",fuel anaerobic glycolysis in the presence of MPP+,MPP+ toxicity; data not published,great propensity
Oc1ccc2c(c1)OCO2 [SESAMOL],reduce/chelate and complex iron,[1],most powerful
CC1=CC(=O)C(C(C)C)=CC1=O [THYMOQUINONE],protection against MPP+ toxicity,MPP+ toxicity,effective
N[C@@H](Cc1c[nH]c2ccccc12)C(=O)O [TRYPTOPHAN],protection against MPP+ toxicity,MPP+ toxicity,effective
"O=C1O[C@H]([C@@H](O)CO)C(O)=C1O [VITAMIN C, ascorbic acid]",block of DA oxidation,[2],block
O=C(O)/C=C/c1ccc(O)c(O)c1 [caffeic acid],reduce/chelate and complex iron,[1],most powerful
COC1=C(OC)C(=O)C(C/C=C(\C)CC/C=C(\C)CC/C=C(\C)CC/C=C(\C)CC/C=C(\C)CC/C=C(\C)CC/C=C(\C)CC/C=C(\C)CC/C=C(\C)CCC=C(C)C)=C(C)C1=O [coenzyme Q10],protection against MPP+ toxicity,MPP+ toxicity,no effects
same,potentiation of complex II function,complex II,mild potentiator
same,effects on mitochondrial O2 consumption / mitochondrial respiration as a whole,[4],no effects
same,effects on complex IV function,complex IV,little to no effects
same,effects on complex I function,complex I,little to no effects
O=c1oc2c(O)c(O)cc3c(=O)oc4c(O)c(O)cc1c4c23 [ellagic acid],reduce/chelate and complex iron,[1],most powerful
N[C@@H](Cc1c[nH]cn1)C(=O)O [histidine],protection against / antagonism of 6-OHDA toxicity,6-OHDA toxicity [3],mild protection
O=c1c(O)c(-c2ccc(O)c(O)c2)oc2cc(O)cc(O)c12 [quercetin],reduce/chelate and complex iron,[1],most powerful
"Cc1cc2nc3c(=O)[nH]c(=O)nc-3n(C[C@H](O)[C@H](O)[C@H](O)CO)c2cc1C [riboflavin, RIBOFLAVIN]",protection against MPP+ toxicity,MPP+ toxicity,exacerbating
COc1cc(CCC(C)=O)ccc1O [zingerone],antagonism of 6-OHDA toxicity,6-OHDA toxicity [5],directly antagonize
CC1=C(/C=C/C(C)=C/C=C/C(C)=C/C=C/C=C(C)/C=C/C=C(C)/C=C/C2=C(C)CCCC2(C)C)C(C)(C)CCC1 [β-CAROTENE],block of DA oxidation,[2],block
same,scavenge H2O2,[6],scavenge
"CYTOCHROME C: cytochrome C, combined with an H2O2 antioxidant to detoxify 6-OHDA",protection against / antagonism of 6-OHDA toxicity,6-OHDA toxicity [3],directly antagonize
NARINGEN,protection against MPP+ toxicity,MPP+ toxicity,effective
Vitamin E,block of DA oxidation,[2],lack of effects
same,scavenge H2O2,[6],lack of effects
